Test results as given in patent publication US9198896B2 (priority 2006, dated 2015).

How the values were obtained:
EAC cells = assay: Tumor growth inhibition study; details: individually, at the concentrations mentioned in Table 7
Procedure: Tumor growth inhibition study: For this study, the total number of EAC cells was counted. The ascites fluid containing cells were quantitatively removed from peritoneal cavity of two mice for a particular drug combination. The cavity was further washed twice with a fixed volume of 0.9% NaCl. The washing and the ascites fluid containing the cells were pooled and centrifuged at 2000×g for 5 min. The packed cell volumes were noted. A fixed amount of aliquot from the packed cells was appropriately diluted, and the number of cells was counted in a hemocytometer. Averages (X^−±SEM) were made of these two parameters, and percentage inhibitions [(1−T/C)×100] were calculated for each dose of different test combinations.

Ehrlich ascites cells = assay: Loss of viability of Ehrlich ascites cells on incubation; details: read-out: reduction of viability of Ehrlich ascites cells

SMILES | effect on EAC cells inoculated mice (EAC cells) | cytotoxicity at 200 µM (Ehrlich ascites cells) [%]
O=C1O[C@H]([C@@H](O)CO)C(O)=C1O [ascorbic acid, reference compound] | no effect | 
CN(CC(=O)O)C(=N)N [creatine] | no effect | 
COc1ccc2[nH]cc(CCNC(C)=O)c2c1 [melatonin] |  | ~10
